Data from patent US20250215029A1 (Recludix Pharma, Inc., priority 2022, published 2025).
Read-outs that look alike come from different tables or passages of the source.

Tests used:
[1] = biological target: T1, Recombinant STAT6 protein (STAT6 (W123-T658)) (Homo sapiens, UniProt P42226); experiment: STAT6 Fluorescence Polarization (FP) Assay; format: binding; details: 45-minute incubation
T1 construct: Recombinant STAT6 protein (STAT6 (W123-T658))
T1 sequence (P42226 123-658): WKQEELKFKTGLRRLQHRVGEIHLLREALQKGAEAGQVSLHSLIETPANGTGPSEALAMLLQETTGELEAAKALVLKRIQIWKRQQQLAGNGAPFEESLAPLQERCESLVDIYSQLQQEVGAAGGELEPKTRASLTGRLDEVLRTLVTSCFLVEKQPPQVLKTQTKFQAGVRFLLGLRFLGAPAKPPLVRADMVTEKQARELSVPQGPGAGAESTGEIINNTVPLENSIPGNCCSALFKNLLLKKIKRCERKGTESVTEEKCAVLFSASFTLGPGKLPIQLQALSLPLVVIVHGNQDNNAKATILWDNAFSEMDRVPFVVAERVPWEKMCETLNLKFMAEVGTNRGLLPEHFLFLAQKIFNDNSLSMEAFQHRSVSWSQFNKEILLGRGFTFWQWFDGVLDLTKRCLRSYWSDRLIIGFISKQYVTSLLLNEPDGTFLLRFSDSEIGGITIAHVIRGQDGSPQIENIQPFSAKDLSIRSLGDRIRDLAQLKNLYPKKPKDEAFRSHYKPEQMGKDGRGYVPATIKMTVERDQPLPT
Summary of the method: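 Displacement of a fluorescent phosphotyrosine peptide (2 nM) from 250 nM STAT6 (W123-T658) is measured by polarization after a 45-minute room-temperature incubation. Compounds are titrated serially at 1% DMSO, and IC50 values derive from regression of mP on log concentration.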

[2] = biological target: T2, Recombinant STAT3 protein (STAT3 (G127-I722)) (Homo sapiens, UniProt P40763); experiment: STAT3 Fluorescence Polarization (FP) Assay; format: binding; details: probe 5-FAM-GpYLPQTV-NH2 2 nM, 45-minute incubation
T2 construct: Recombinant STAT3 protein (STAT3 (G127-I722))
Summary of the method: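 Read-out is fluorescence polarization (mP) after 45 min at room temperature, with IC50 fitted by nonlinear regression against log compound concentration. Mixture: 25 nM STAT3 (G127-I722), 2 nM 5-FAM-GpYLPQTV-NH2 phosphopeptide, 10 mM HEPES pH 7.4 buffer, 1% DMSO.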

[3] = STAT6 (W123-T658) 250 nM, probe 5-FAM-Ap[…]-NH2 2 nM, read-out: STAT6 (FP assay IC50 class)
[4] = STAT3 (G127-I722) 25 nM, read-out: STAT3 (FP assay IC50 class)
[5] = STAT6 250 nM, probe 5-FAM-Ap[…]-NH2 2 nM, read-out: STAT6 (FP assay IC50)
[6] = STAT3 25 nM, read-out: STAT3 (FP assay IC50)

T2 sequence (P40763 127-722): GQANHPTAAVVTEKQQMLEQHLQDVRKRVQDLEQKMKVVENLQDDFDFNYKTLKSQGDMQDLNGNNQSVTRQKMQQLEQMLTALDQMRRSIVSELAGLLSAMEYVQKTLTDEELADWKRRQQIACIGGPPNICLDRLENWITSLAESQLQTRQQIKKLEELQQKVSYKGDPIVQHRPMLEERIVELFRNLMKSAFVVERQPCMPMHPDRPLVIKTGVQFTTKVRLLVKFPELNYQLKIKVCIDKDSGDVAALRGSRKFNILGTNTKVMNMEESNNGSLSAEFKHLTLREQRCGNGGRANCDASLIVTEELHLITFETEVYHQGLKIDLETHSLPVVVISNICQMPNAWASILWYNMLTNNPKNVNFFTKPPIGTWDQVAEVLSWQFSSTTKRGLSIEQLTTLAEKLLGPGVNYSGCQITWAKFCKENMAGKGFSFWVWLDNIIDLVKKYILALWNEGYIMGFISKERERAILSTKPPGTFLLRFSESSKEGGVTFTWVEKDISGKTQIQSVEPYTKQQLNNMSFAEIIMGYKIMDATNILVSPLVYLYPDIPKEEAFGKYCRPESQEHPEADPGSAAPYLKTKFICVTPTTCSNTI

## COc1ccncc1[C@@H]1CCN(C(=O)[C@@H]2CC[C@@H]3CCC[C@H](NC(=O)c4cc5cc(C(F)P(=O)(O)O)ccc5s4)C(=O)N32)C1 (stereo partly drawn) [Compound 706, (fluoro(2-(((3S,6S,9aS)-3-((S)-3-(4-methoxypyridin-3-yl)pyrrolidine-1-carbonyl)-5-oxooctahydro-1H-pyrrolo[1,2-a]azepin-6-yl)carbamoyl)benzo [b]thiophen-5-yl)methyl) phosphonic acid]
[1]; [3]
  IC50: 0.3 to 3 µM
[2]; [4]
  IC50: < 0.1 µM

## Cn1ncc(C2CN(C(=O)[C@@H]3CC[C@@H]4CCC[C@H](NC(=O)c5cc6cc(C(F)P(=O)(O)O)ccc6s5)C(=O)N43)C2)c1C#N (stereo partly drawn) [Compound 743, ((2-(((3S,6S,9aS)-3-(3-(5-cyano-1-methyl-1H-pyrazol-4-yl)azetidine-1-carbonyl)-5-oxooctahydro-1H-pyrrolo[1,2-a]azepin-6-yl)carbamoyl)benzo [b]thiophen-5-yl)fluoromethyl) phosphonic acid]
[1]; [3]
  IC50: 3 to 30 µM
[2]; [4]
  IC50: 1 to 10 µM

## COCC1CN(c2ccncc2C2CN(C(=O)[C@@H]3CC[C@@H]4CCC[C@H](NC(=O)c5cc6cc([C@@H](F)P(=O)(O)O)ccc6s5)C(=O)N43)C2)C1 [Compound 856, ((S)-fluoro(2-(((3S,6S,9aS)-3-(3-(4-(3-(methoxymethyl)azetidin-1-yl)pyridin-3-yl)azetidine-1-carbonyl)-5-oxooctahydro-1H-pyrrolo[1,2-a]azepin-6-yl)carbamoyl)benzo [b]thiophen-5-yl)methyl) phosphonic acid]
[1]; [3]
  IC50: 0.3 to 3 µM
[2]; [4]
  IC50: < 0.1 µM

## COC1(c2nncn2C)CN(C(=O)[C@@H]2CC[C@@H]3CCC[C@H](NC(=O)c4cc5cc(C(F)(F)P(=O)(O)O)ccc5s4)C(=O)N32)C1 [Compound 796, (difluoro(2-(((3S,6S,9aS)-3-(3-methoxy-3-(4-methyl-4H-1,2,4-triazol-3-yl)azetidine-1-carbonyl)-5-oxooctahydro-1H-pyrrolo[1,2-a]azepin-6-yl)carbamoyl)benzo [b]thiophen-5-yl)methyl) phosphonic acid]
[1]; [3]
  IC50: 3 to 30 µM
[2]; [4]
  IC50: 0.1 to 1 µM

## Cn1ccnc1C1CN(C(=O)[C@@H]2CC[C@@H]3CCC[C@H](NC(=O)c4cc5cc(C(F)(F)P(=O)(O)O)ccc5s4)C(=O)N32)C1 [Compound 799, (difluoro(2-(((3S,6S,9aS)-3-(3-(1-methyl-1H-imidazol-2-yl)azetidine-1-carbonyl)-5-oxooctahydro-1H-pyrrolo[1,2-a]azepin-6-yl)carbamoyl)benzo [b]thiophen-5-yl)methyl) phosphonic acid]
[1]; [3]
  IC50: 0.3 to 3 µM
[2]; [4]
  IC50: < 0.1 µM

## N#C[C@@H]1[C@@H](c2cncc(Cl)c2)CN(C(=O)[C@@H]2CC[C@@H]3CCC[C@H](NC(=O)c4cc5cc([C@H](F)P(=O)(O)O)ccc5s4)C(=O)N32)C12CC2 (single isomer, unassigned) [Compound 841]
[1]; [3]
  IC50: 0.3 to 3 µM
[2]; [4]
  IC50: 1 to 10 µM

## O=C(N[C@H]1CCCC[C@H]2CC[C@@H](C(=O)N3CC(c4cnccc4-c4ccccc4)C3)N2C1=O)c1cc2cc(C(F)(F)P(=O)(O)O)ccc2s1 [Compound 516, (difluoro(2-(((3S,6S,10aS)-5-oxo-3-(3-(4-phenylpyridin-3-yl)azetidine-1-carbonyl)decahydropyrrolo[1,2-a]azocin-6-yl)carbamoyl)benzo[b]thiophen-5-yl)methyl)phosphonic acid]
[1]; [3]
  IC50: 0.3 to 3 µM
[2]; [4]
  IC50: < 0.1 µM

## CC(C)n1cc(N(C)C(=O)[C@@H]2CC[C@@H]3CCCC[C@H](NC(=O)c4cc5cc(C(F)(F)P(=O)(O)O)ccc5s4)C(=O)N32)cn1 [Compound 793, (difluoro(2-(((3S,6S,10aS)-3-((1-isopropyl-1H-pyrazol-4-yl)(methyl)carbamoyl)-5-oxodecahydropyrrolo[1,2-a]azocin-6-yl)carbamoyl)benzo [b]thiophen-5-yl)methyl) phosphonic acid]
[1]; [3]
  IC50: 3 to 30 µM
[2]; [4]
  IC50: 1 to 10 µM

## N#CC1C(c2ccccc2)CN(C(=O)[C@@H]2CC[C@@H]3CCC[C@H](NC(=O)c4cc5cc(C(F)(F)P(=O)(O)O)ccc5s4)C(=O)N32)C12CC2 (stereo in doubt) [Compound 865, ((2-(((3S,6S,9aS)-3-((6S,7R)-7-cyano-6-phenyl-4-azaspiro[2.4]heptane-4-carbonyl)-5-oxooctahydro-1H-pyrrolo[1,2-a]azepin-6-yl)carbamoyl)benzo [b]thiophen-5-yl)difluoromethyl) phosphonic acid]
[1]; [3]
  IC50: ≤ 0.3 µM
[2]; [4]
  IC50: 1 to 10 µM

## Cc1[nH]nc2ccc(NC(=O)[C@@H]3CC[C@@H]4CCCC[C@H](NC(=O)c5cc6cc(C(F)(F)P(=O)(O)O)ccc6s5)C(=O)N43)cc12 [Compound 59, (difluoro(2-(((3S,6S,10aS)-3-((3-methyl-2H-indazol-5-yl)carbamoyl)-5-oxodecahydro-pyrrolo[1,2-a]azocin-6-yl)carbamoyl)benzo[b]thiophen-5-yl)methyl) phosphonic acid]
[1]; [5]
  IC50: 0.3 to 3 µM
[2]; [6]
  IC50: 0.1 to 1 µM

## COc1ccncc1[C@H]1CCN(C(=O)[C@@H]2CC[C@@H]3CCC[C@H](NC(=O)c4cc5cc(C(F)P(=O)(O)O)ccc5s4)C(=O)N32)C1 (stereo partly drawn) [Compound 707, (fluoro(2-(((3S,6S,9aS)-3-((R)-3-(4-methoxypyridin-3-yl)pyrrolidine-1-carbonyl)-5-oxooctahydro-1H-pyrrolo[1,2-a]azepin-6-yl)carbamoyl)benzo [b]thiophen-5-yl)methyl) phosphonic acid]
[1]; [3]
  IC50: 0.3 to 3 µM
[2]; [4]
  IC50: < 0.1 µM

## CN(C)c1cc(C2CN(C(=O)[C@@H]3CC[C@@H]4CCC[C@H](NC(=O)c5cc6cc([C@@H](F)P(=O)(O)O)ccc6s5)C(=O)N43)C2)ccn1 (single isomer, unassigned) [Compound 701]
[1]; [3]
  IC50: 3 to 30 µM
[2]; [4]
  IC50: 0.1 to 1 µM

## Cn1ccc([C@@H]2CN(C(=O)[C@@H]3CC[C@@H]4CCCC[C@H](NC(=O)c5cc6cc(C(F)P(=O)(O)O)ccc6s5)C(=O)N43)C[C@H]2C#N)cc1=O (single isomer, unassigned) [Compound 228]
[1]; STAT6 (W123-T658) 250 nM, probe 5-FAM-ApYKPFQDLI-NH2 2 nM, read-out: STAT6 (FP assay IC50 class)
  IC50: 0.3 to 3 µM
[2]; [4]
  IC50: 1 to 10 µM

## N#C[C@@H]1CN(C(=O)[C@@H]2CC[C@@H]3C[C@@H](N4CCC4)CC[C@H](NC(=O)c4cc5cc(C(F)(F)P(=O)(O)O)ccc5s4)C(=O)N32)C[C@H]1c1ccccc1 (relative stereo) [Compound 21, ((2-(((3S,6S,9S,10aR)-9-(azetidin-1-yl)-3-(rel-(trans)-3-cyano-4-phenylpyrrolidine-1-carbonyl)-5-oxodecahydropyrrolo [1,2-a]azocin-6-yl)carbamoyl)benzo[b]thiophen-5-yl)difluoromethyl) phosphonic acid]
[1]; [5]
  IC50: ≤ 0.3 µM
[2]; [6]
  IC50: 1 to 10 µM

## O=C(N[C@H]1CCCC[C@H]2CC[C@@H](C(=O)N3CC[C@@H](c4ccccc4)C3)N2C1=O)c1cc2cc(C(F)(F)P(=O)(O)O)ccc2s1 [Compound 82, (difluoro(2-(((3S,6S,10aS)-5-oxo-3-((S)-3-phenylpyrrolidine-1-carbonyl)decahydropyrrolo [1,2-a]azocin-6-yl)carbamoyl)benzo[b]thiophen-5-yl)methyl) phosphonic acid]
[1]; [5]
  IC50: ≤ 0.3 µM
[2]; [6]
  IC50: 0.1 to 1 µM

## O=C(N[C@H]1CCCC[C@H]2CC[C@@H](C(=O)N3C(=O)N(c4ccn(C(F)F)c(=O)c4)C(=O)C34CC4)N2C1=O)c1cc2cc(C(F)P(=O)(O)O)ccc2s1 (stereo partly drawn) [Compound 572, ((2-(((3S,6S,10aS)-3-(6-(1-(difluoromethyl)-2-oxo-1,2-dihydropyridin-4-yl)-5,7-dioxo-4,6-diazaspiro[2.4]heptane-4-carbonyl)-5-oxodecahydropyrrolo[1,2-a]azocin-6-yl)carbamoyl)benzo[b]thiophen-5-yl)fluoromethyl)phosphonic acid]
[1]; [3]
  IC50: 0.3 to 3 µM
[2]; [4]
  IC50: 1 to 10 µM

## Cc1ccncc1C1CN(C(=O)[C@@H]2CC[C@@H]3CC(C)C[C@H](NC(=O)c4cc5cc(CP(=O)(O)O)ccc5s4)C(=O)N32)C1 (stereo partly drawn) [Compound 500, ((2-(((3S,6S,9aR)-8-methyl-3-(3-(4-methylpyridin-3-yl)azetidine-1-carbonyl)-5-oxooctahydro-1H-pyrrolo[1,2-a]azepin-6-yl)carbamoyl)benzo[b]thiophen-5-yl)methyl)phosphonic acid]
[1]; [3]
  IC50: 3 to 30 µM
[2]; [4]
  IC50: 0.1 to 1 µM

## N#C[C@@H]1[C@@H](c2cncc(Cl)c2)CN(C(=O)[C@@H]2CC[C@@H]3CCCC[C@H](NC(=O)c4cc5cc([C@H](F)P(=O)(O)O)ccc5s4)C(=O)N32)C12CC2 (single isomer, unassigned) [Compound 845]
[1]; [3]
  IC50: ≤ 0.3 µM
[2]; [4]
  IC50: 1 to 10 µM
